Test results as given in patent US20110009394A1, “TRICYCLIC NITROGEN COMPOUNDS AND THEIR USE AS ANTIBACTERIAL AGENTS” (Glaxo Group Limited, priority 2008, published 2011).
Counter-ions that a name gives are not always drawn. Like-named read-outs stand apart in the source and are kept apart here.

System: Mycobacterium tuberculosis H37Rv
Assay: Mycobacterium tuberculosis H37Rv Inhibition Assay
Format: cell-based
Settings: ATCC 25618 / H37Rv, read-out: MIC value

Structure (SMILES): O=c1cnc2ccc(=O)n3c2n1CCC3CN1CCC(NCc2cc3c(cn2)OCCO3)CC1 (stereo not drawn) [Example 1, 6-([4-[(2,3-Dihydro[1,4]dioxino[2,3-c]pyridin-7-ylmethyl)amino]-1-piperidinyl]methyl)-5,6-dihydro-3H,4H,7H-1,3a,6a-triazaphenalene-3,7-dione dihydrochloride]
- MIC: > 4 µg/mL

Structure (SMILES): O=c1cnc2ccc(=O)n3c2n1CCC3CN1CCC(NCc2cc3c(cn2)OCS3)CC1 (stereo not drawn) [Example 2, 6-({4-[([1,3]Oxathiolo[5,4-c]pyridin-6-ylmethyl)amino]-1-piperidinyl}methyl)-5,6-dihydro-3H,4H,7H-1,3a,6a-triazaphenalene-3,7-dione dihydrochloride]
- MIC: > 4 µg/mL

Structure (SMILES): O=C1CSc2ccc(CNC3CCN(CC4CCn5c(=O)cnc6ccc(=O)n4c65)CC3)nc2N1 (stereo not drawn) [Example 4, 6-[(4-{[(3-oxo-3,4-dihydro-2H-pyrido[3,2-b][1,4]thiazin-6-yl)methyl]amino}-1-piperidinyl)methyl]-5,6-dihydro-3H,4H,7H-1,3a,6a-triazaphenalene-3,7-dione dihydrochloride]
- MIC: < 400 µg/mL

Structure (SMILES): O=c1ccc2ncc(=O)n3c2n1CCC3CN1CCC(NCc2cc3c(cn2)OCS3)CC1 (stereo not drawn) [Example 8, 4-({4-[([1,3]Oxathiolo[5,4-c]pyridin-6-ylmethyl)amino]-1-piperidinyl}methyl)-5,6-dihydro-3H,4H,7H-1,3a,6a-triazaphenalene-3,7-dione dihydrochloride]
- MIC: > 4 µg/mL

Structure (SMILES): O=c1ccc2ncc(=O)n3c2n1CC[C@H]3CN1CCC(NCc2cc3c(cn2)OCCS3)CC1 [Example 9, (4S)-4-({4-[(2,3-Dihydro[1,4]oxathiino[2,3-c]pyridin-7-ylmethyl)amino]-1-piperidinyl}methyl)-5,6-dihydro-3H,4H,7H-1,3a,6a-triazaphenalene-3,7-dione dihydrochloride]
- MIC: > 4 µg/mL

Structure (SMILES): O=c1ccc2ccc(=O)n3c2n1CCC3CN1CCC(NCc2cc3c(cn2)OCS3)CC1 (stereo not drawn) [Example 11, 5-({4-[([1,3]Oxathiolo[5,4-c]pyridin-6-ylmethyl)amino]-1-piperidinyl}methyl)-6,7-dihydro-3H,5H,9H-pyrimido[1,2,3-ij]-1,8-naphthyridine-3,9-dione dihydrochloride]
- MIC: < 4 µg/mL

Structure (SMILES): N#Cc1cc(CNC2CCN(C[C@@H]3CCn4c(=O)cnc5ccc(=O)n3c54)CC2)cc2c1OCCO2 [Example 15, 7-{[(1-{[(6S)-3,7-Dioxo-5,6-dihydro-3H,4H,7H-1,3a,6a-triazaphenalen-6-yl]methyl}-4-piperidinyl)amino]methyl}-2,3-dihydro-1,4-benzodioxin-5-carbonitrile dihydrochloride]
- MIC: < 4 µg/mL

Structure (SMILES): O=c1cnc2ccc(=O)n3c2n1CC[C@H]3CN1CCC(NCc2cc3c(cc2F)OCCO3)CC1 [Example 16, (6S)-6-[(4-{[(7-Fluoro-2,3-dihydro-1,4-benzodioxin-6-yl)methyl]amino}-1-piperidinyl)methyl]-5,6-dihydro-3H,4H,7H-1,3a,6a-triazaphenalene-3,7-dione dihydrochloride]
- MIC: > 4 µg/mL

Structure (SMILES): Cl.O=c1cnc2ccc(=O)n3c2n1CC[C@H]3CN1CCC(NCc2ccc3c(c2)OCCO3)CC1 [Example 17B, (6S)-6-({4-[(2,3-Dihydro-1,4-benzodioxin-6-ylmethyl)amino]-1-piperidinyl}methyl)-5,6-dihydro-3H,4H,7H-1,3a,6a-triazaphenalene-3,7-dione hydrochloride]
- MIC (H37Rv strain (ATCC25618), Middlebrook 7H9+ADC, resazurin fluorescence): < 4 µg/mL
